Measurements reported in patent US20110045032A1 (priority 2001, published 2011).

Legend:
Assay type in all cases: in vivo
[1] = test system: dust mite-sensitized cynomolgus monkeys; assay: Early phase pulmonary function response to allergen (Example 24)
Method: (§1) This study defines the effect of 5 days of treatment with DHEA-S on allergen-induced early phase response, and pulmonary inflammation in dust mite-sensitized cynomolgus monkeys. Baseline parameters were measured the week prior to treatment. DHEA-S (5 mg/ml, 2 ml nebulized) or an equivalent volume of saline was delivered once per day via nebulization (Pari LC+) through a canine facemask covering the nose and mouth on days 1 through 5. Allergen challenge and pulmonary function testing were performed on day 3 several hours after drug treatment, and broncho-alveolar lavage fluid BALF) was collected 48 hours post-challenge. The study includes 6 animals studied under a crossover design with a minimum of 4 weeks rest between study arms. The treatment with DHEA-S led to the following changes in the disease status of the animals:
Effects on airway obstruction were measured by changes in dynamic compliance in response to allergen challenge. Allergic Cynomolgus monkeys were monitored for 15 minutes following allergen challenge and the values plotted against time. Changes in dynamic compliance were determined by the % change in compliance as compared to the animal's initial saline value recorded prior to challenge. Changes in response to allergen and/or treatment were calculated using the area under the curve (AUC) where an AUC unit is defined as % change×minutes. Treatment with DHEA-S attenuated the drop in airway compliance following allergen challenge by 87% as compared to saline treatment. With saline treatment, the total AUC was −394±127 units compared to −49±116 units for animals treated with DHEA-S. See, FIGS. 4.3.1.1; 4.3.1.2. This difference in the total AUC for vehicle and DHEA-S treated animals was determined to be significant using Student's t-test for paired observations, p=0.035. Likewise, treatment with DHEA-S attenuated the increase in airway resistance following allergen challenge by 90% as compared to saline treatment.

[2] = test system: dust mite-sensitized cynomolgus monkeys; assay: BALF cell count after allergen challenge (Example 24); conditions: for total leukocytes in BALF: DHEA-S treatment group
Method: as §1, with “animals: […]” for “animals:”

[3] = test system: dust mite-sensitized rabbits; assay: BALF inflammation, DHEA-S vs Pulmicort vs saline (Example 27)
Method: This follow-up study compared the effects of DHEA-S and Puimicort® (budesonide inhalation suspension) on allergen-induced bronchial hyperresponsiveness (BHR) to histamine and pulmonary inflammation in dust mite-sensitized rabbits. The study included 18 animals divided into 3 treatment groups: saline, DHEA-S, and Puimicort. The animals were treated for once per day for 5 consecutive days via nebulization through a pediatric facemask covering the nose and mouth. Treatments were DHEA-S, 10 mg/day (5 mg/ml), Pulmicort Respules, 0.5 mg/day (0.5 mg/2 ml, note: this is the standard human dose) or saline (2 ml). A dust mite challenge was performed on day 4, and development of airway inflammation was assessed 6 hours and 30 hours after dust mite challenge. Histamine sensitivity was assessed 30 hours after challenge (day 5) and the lungs removed for histology.

ragweed-sensitized mice [4] = assay: Bronchial hyperresponsiveness to methacholine, whole-body plethysmograph (Example 28)
Method: (§2) Two groups of mice were sensitized with two intraperitoneal injections and one intranasat administration of ragweed allergen (Ambrosia artemistifolia) on days 0, 4 and 11 respectively. A third group was treated similarly with saline to serve as non-allergic controls. The next two days, the treatment group animals were exposed to DHEA-S delivered as an aerosol (5 mg/ml suspension in saline, 2 ml nebulized) using the whole-body plethysmograph system (Buxco Electronics, Inc., Sharon, Conn.) and a DeVilbiss ultrasonic nebulizer. Twenty-four hours after the last drug exposure, mice were challenged with increasing concentrations of methacholine to determine bronchial hyperresponsiveness and then lavaged to determine relative changes in cell populations in BAL fluid.
The ragweed only group responded in a dose-related fashion with increasing Penh value over the range of methacholine tested and a mean area under the curve of 7488.8.

ragweed-sensitized mice [5] = assay: BAL cell populations after methacholine challenge (Example 28); conditions: Ragweed alone 13.8%; P<0.05
Method: as §2

[6] = Acute inhalation toxicity in dogs; conditions: dog, in vivo, inhaled; preclinical toxicology studies; not achieved at this dose; read-out: maximum tolerated dose
Method: (§3) Other findings were minor in nature and detailed in the reports that follow. Therefore, nebulization of an aqueous solution was determined to be feasible but not practical due to the inability to achieve a sufficient safety factor to support clinical trials.

dogs = assay: Acute inhalation toxicity in dogs; conditions: inhalation
Method: as §3

[7] = 48 hours after allergen challenge, compared to saline
[8] = 6 hours after allergen challenge, compared to Pulmicort

With `CC12CCC3C(CC=C4CC(OS(=O)(=O)[O-])CCC43C)C1CCC2=O.[Na+]` (stereo not shown) [DHEA-S, Dehydroepiandrosterone sulfate] the “total area under the curve for the change in compliance following allergen challenge” value ([1]; AUC unit = % change×minutes, 15 minutes, saline −394±127) was −49±116 units, the “total area under the curve for the change in resistance following allergen challenge” value ([1]; AUC unit = % change×minutes, saline 564±266) was 54±90 units and the “attenuation of the increase in airway resistance following allergen challenge” value ([1]; compared to saline treatment) was 90%. For the same molecule, the “attenuation of the drop in airway compliance following allergen challenge” value ([1]; nebulized 5 mg/ml, 2 ml once per day, 5 days, compared to saline treatment) was 87%, the “decrease of % eosinophils in BALF” value [2, 7] was “approximately 57%” and the “decrease of percentage of neutrophils in BALF” value [2, 7] was 42%. The “eosinophil numbers in BALF less than saline” value ([2]; 48 hours after allergen challenge, did not reach significance) was “approximately 64%”, the “eosinophil numbers in BALF” value ([2]; 48 hours after allergen challenge, saline 4.3±1.7) was 1.6±0.8 ×10^4 cells/ml and the “total leukocytes in BALF” value ([2]; 48 hours after allergen challenge) was 39.4 ×10^4 cell/ml. The “total leukocytes in BALF” value ([2]; before allergen challenge) was 34.5 ×10^4 cell/ml, the “absolute number of neutrophils in BALF” value ([2]; after allergen challenge) was 9.7±2.2 ×10^4 cells/ml and the “neutrophil influx level vs pre-challenge” value ([2]; cynomolgus monkey, in vivo) was “not significantly higher than pre-challenge levels”. For the same molecule, the “percentage of eosinophils before and after allergen challenge” value ([2]; cynomolgus monkey, in vivo) was “not significantly different”, the “number of eosinophils in BALF” value ([3]; 6 hours after allergen challenge) was “tended to decrease” and the “decrease of epithelial shedding” value [3, 8] was 54%. For the same molecule, the “reduction of number of neutrophils in the BALF” value [3, 8] was 91%, the “reduction of cellular influx of cells into the BALF” value ([3]; 6 hours after allergen challenge, compared to Pulmicort, DHEA-S 10 mg/day nebulized, 5 days) was 62% and the “allergen-induced increase in neutrophils in BALF” value ([3]; 6 hours or 24 hours after allergen challenge) was “no allergen-induced increase in neutrophils”. The “number of eosinophils in BALF” value ([3]; 24 hours after allergen challenge) was “significant elevation”, the “total number of cells in the BALF compared to pre-challenge value” ([3]; six hours following allergen challenge) was “did not” and the “reduction of eosinophilic inflammation compared with budesonide” value ([3]; summary statement) was “at least equivalent to budesonide”. For the same molecule, the “reduction of neutrophilic inflammation compared with budesonide” value ([3]; summary statement) was “far superior”, the “reduction of area under the curve (AUC) of the methacholine response” value (ragweed-sensitized mice [4]; aerosol 5 mg/ml suspension, 2 ml nebulized, two days) was 46% and the “mean area under the curve of Penh response to methacholine” value (ragweed-sensitized mice [4]; ragweed only 7488.8, non-allergic saline 2646.8) was 4038.0. For the same molecule, the “percent neutrophils in BAL” value (ragweed-sensitized mice [5]) was 3.2%, the MTD [6] was over 2 mg/kg/day and the maximum tolerated dose (dogs) was “could not be achieved”. The “adverse effects to the respiratory tract” value (dogs; up to the maximum feasible dose) was “did not produce any adverse affects”.
